According to US20240208997A1, “CYCLIC BENZIMIDAZOLE DERIVATIVES AS CGAS INHIBITORS” (Boehringer Ingelheim International GmbH, priority 2022, published 2024):

What was measured:
[1] = system: IFN induction in cGAMP-stimulated THP1 cells; test: cGAMP stimulated counter cell assay in THP1-Dual cells (THP1(cGAMP) IC50); type: cell-based, human; details: Table 1; for IC50: Homo sapiens, THP-1, counter assay, 10 μM cGAMP stimulation, read-out: THP(cGAMP) IC50; for Ratio THP(cGAMP) IC50/THP(vir) IC50: selectivity for cGAS-inhibition
Source text: 6.2 Method: Human cGAS Cell Assay and cGAMP Stimulated Counter Cell Assay (THP1(vir) IC50 and THP1(cGAMP) IC50)
For the counter assay, cells were stimulated by cGAMP (SigmaAldrich #SML1232) to activate the identical pathway independent and directly downstream of cGAS (measurement of THP1(cGAMP) IC50).
Pathway activity was monitored by measuring the Lucia luciferase activity induced by either DNA stimulated cGAS enzyme activity (measurement of THP1(vir) IC50) or by cGAMP directly (measurement of THP1(cGAMP) IC50, counter assay).
(§1) Compounds were delivered in 10 mM DMSO solution, serially diluted and transferred to the 384 well assay plate (Greiner #781201) using an Echo acoustic dispenser. Typically, 8 concentrations were used with the highest concentration at 10 μM in the final assay volume followed by ^˜1:5 dilution steps. DMSO concentration was set to 1% in the final assay volume. The 384 well assay plate contained 21 test compounds (column 1-22), and DMSO in column 23 and 24.
Cells, cultivated according to manufacturer conditions, were harvested by centrifugation at 300 g/10 min and were then resuspended and diluted to 1.66E5 cells/ml in fresh cell culture medium (RPMI 1640 (Gibco #A10491-01), 10% FCS (Gibco #10500), 1× GlutaMax (Gibco #35050-061), 1× Pen/Strep solution (Gibco #15140-122), 100 μg/ml Normocin (InvivoGen #ant-nr), 100 μg/ml Zeocin (InvivoGen #ant-zn), 10 μg/ml Blasticidin S (Life Technologies #A11139-03)). The baculovirus solution was then added 1:200 (have varied according to virus batch) to the cells (measurement of THP1(vir) IC50).
30 μL of the cell/virus-mix were added to each well of the compound plate from column 1-23 via MultiDrop Combi dispenser (5000 cells/well). In column 24, 30 μl/5000 cells/well without virus were added as a low control.
The plates were then incubated for 18 h at 37° C. in a humidified incubator.
Following that, 15 μL of QuantiLuc detection reagent (InvivoGen #rep-qlcg5) were added to each well using a MultiDrop Combi. Measurement was done immediately after the addition using an EnVision reader (US-luminescence read-mode).
(§2) Data Evaluation and Calculation:
(§3) For data evaluation and calculation, the measurement of the low control was set as 0% control and the measurement of the high control was set as 100% control. The IC50 values were calculated using the standard 4 parameter logistic regression formula. Calculation: [y=(a−d)/(1+(x/c)^b)+d], a=low value, d=high value; x=conc M; c=IC50 M; b=slope

cGAS = cGAS (Homo sapiens, UniProt Q8N884); test: Human cGAS enzyme assay (hcGAS IC50, in vitro), cGAMP formation by RapidFire MS; type: biochemical; design: HumancGAS (amino acid 1-522) with an N-terminal 6×-His-tag and SUMO-tag; 6xHis (N); SUMO (N); made in house; host or cells: E. coli BL21(DE3) pLysS; details: Table 1; 45 bp dsDNA-activated enzyme
Experimental: 6.1 Method: Human cGAS Enzyme Assay (hcGAS IC50 (In Vitro))
Human cGAS enzyme was incubated in the presence of a 45 base pair double stranded DNA to activate the enzyme and GTP and ATP as substrates. Compound activity was determined by measuring the effect of compounds on the formation of the product of the enzyme reaction, cGAMP, which is measured by a mass spectrometry method.
HumancGAS (amino acid 1-522) with an N-terminal 6×-His-tag and SUMO-tag was expressed in E. coli BL21(DE3) pLysS (Novagen) cells for 16 h at 18° C. Cells were lysed in buffer containing 25 mM Tris (pH 8), 300 mM NaCl, 10 mM imidazole, 10% glycerol, protease inhibitor cocktail (cOmplete™, EDTA-free, Roche) and DNase (5 μg/mL). […] Purified protein was concentrated to 1.7 mg/mL and stored at −80° C.
as §1, with “22” for “21”
After the compound transfer, 15 μL of the enzyme-DNA-working solution (12 nM cGAS, 0.32 μM 45base pair DNA in assay buffer, 10 mM Tris pH 7.5/10 mM KCl/5 mM MgCl2/1 mM DTT) were added to each well from column 1-23 via a MultiDrop Combi dispenser. In column 24, 15 μl of assay buffer without enzyme/DNA were added as a low control.
The plates were then pre-incubated for 60 min at room temperature.
Following that, 10 μL of GTP (ThermoFisher #R0461)-ATP (Promega #V915B) mix in assay buffer were added to the assay plate (columns 1-24, 30 μM final concentration each) using a Multidrop Combi.
The plates were incubated again for 90 min at room temperature.
Following the incubation, the reaction was stopped by 80 μL of 0,1% formic acid in assay buffer containing 5 nM cyclic-di-GMP (Sigma #SML1228) used as internal standard for the mass spectrometry. The total volume/well was 105 μL.
The plates were centrifuged at 4000 rpm, 4° C., for 5 min.
The RapidFire autosampler was coupled to a binary pump (Agilent 1290) and a Triple Quad 6500 (ABSciex, Toronto, Canada). […] Aspiration time: 250 ms; Load time: 3000 ms; Elute time: 3000 ms; Wash volume: 500 μL.
The MS was operated in positive ion mode with HESI ion source, with a source temperature of 550 C, curtain gas=35, gas 1=65, and gas 2=80. Unit mass resolution in SRM mode. The following transitions and MS parameters (DP: declustering potential and CE: collision energy) for cGAMP and DicGMP were determined:
Internal standard: cyclic-di-GMP at 690.1/540, DP=130, CE=30.
The formation of cGAMP was monitored and evaluated as ratio to cyclic-di-GMP.
as §2
as §3, with “c=1C50” for “c=IC50”

cGAS, sequence (Q8N884 whole entry): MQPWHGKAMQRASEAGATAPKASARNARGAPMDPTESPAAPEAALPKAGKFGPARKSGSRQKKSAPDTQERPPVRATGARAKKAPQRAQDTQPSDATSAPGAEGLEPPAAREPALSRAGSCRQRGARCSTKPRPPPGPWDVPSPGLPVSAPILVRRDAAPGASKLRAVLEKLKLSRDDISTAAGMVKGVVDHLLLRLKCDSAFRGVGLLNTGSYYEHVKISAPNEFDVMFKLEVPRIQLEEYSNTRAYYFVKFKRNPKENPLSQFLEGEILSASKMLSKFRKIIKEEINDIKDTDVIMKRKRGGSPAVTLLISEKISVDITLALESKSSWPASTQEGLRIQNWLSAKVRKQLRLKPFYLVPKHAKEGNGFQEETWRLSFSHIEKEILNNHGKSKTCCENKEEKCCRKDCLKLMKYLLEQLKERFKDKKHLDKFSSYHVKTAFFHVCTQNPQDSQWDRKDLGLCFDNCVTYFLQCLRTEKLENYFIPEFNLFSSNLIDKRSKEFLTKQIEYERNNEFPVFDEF

| SMILES | IC50 [1] [µM] | Ratio THP(cGAMP) IC50/THP(vir) IC50 [1] | IC50 (cGAS) [nM] |
| --- | --- | --- | --- |
| C[C@H]1CN2CC[C@@H]1n1c(nc3ccccc31)O[C@H]1C[C@@H](C(=O)O)N(C1)c1nc(nc3c1oc1ccccc13)CCOCCOC2=O (mixture of isomers) [Example 12.01] | > 10 | >42 | 8.9 |
| C[C@H]1CN2CC[C@@H]1n1c(nc3ccccc31)O[C@H]1C[C@@H](C(=O)O)N(C1)c1nc(nc3c1oc1ccccc13)CCCCCCC2=O (racemic) [Example 1.24] | 11 | 65 | 18 |
| C[C@H]1CN2CC[C@@H]1n1c(nc3cccc(Cl)c31)O[C@H]1C[C@@H](C(=O)O)N(C1)c1nc(nc3c1oc1ccccc13)CC(=O)NCCCC2=O (racemic) [Example 2.01, (12S,14S)-4-chloro-37-methyl-29,34-dioxo-11,18-dioxa-2,9,15,26,30,35,40-heptaazaoctacyclo[33.2.2.1^12,15.1^16,27.0^2,10.0^3,8.0^17,25.0^19,24]hentetraconta-3,5,7,9,16(40),17(25),19(24),20,22,26-decaene-14-carboxylic acid] | > 10 | >948 | 6 |
| C[C@@H]1CN2CC[C@H]1n1c(nc3cc(Cl)ccc31)O[C@H]1C[C@@H](C(=O)O)N(C1)c1nc(nc3c1oc1ccccc13)CCOCCCC2=O [Example 1.01] | > 10 | >253 | 14 |
| C[C@H]1CN2CC[C@@H]1n1c(nc3cc(Cl)ccc31)O[C@H]1C[C@@H](C(=O)O)N(C1)c1nc(nc3c1oc1ccccc13)CCOCCCC2=O [Example 1.02] | > 10 | >3557 | 2.8 |
| O=C(O)[C@@H]1C[C@H]2CN1c1nc(nc3c1oc1ccccc13)CCOCCCC(=O)N1CCC(CC1)n1c(nc3cc(F)ccc31)O2 [Example 1.03] | > 10 | >90 | 5.6 |
| O=C(O)[C@@H]1C[C@H]2CN1c1nc(nc3c1oc1ccccc13)CCOCCCC(=O)N1CCC(CC1)n1c(nc3ccc(F)cc31)O2 [Example 1.04] | > 10 | >229 | 4.5 |
| C[C@H]1CN2CC[C@@H]1n1c(nc3ccccc31)O[C@H]1C[C@@H](C(=O)O)N(C1)c1nc(nc3c1oc1ccccc13)CCOCCCC2=O [Example 1.05] | > 10 | >3448 | 1.8 |
| C[C@H]1CN2CC[C@@H]1n1c(nc3ccc(Cl)cc31)O[C@H]1C[C@@H](C(=O)O)N(C1)c1nc(nc3c1oc1ccccc13)CCOCCCC2=O [Example 1.06] | > 10 | >2417 | 3.2 |
| C[C@H]1CN2CC[C@@H]1n1c(nc3ccccc31)O[C@H]1C[C@@H](C(=O)O)N(C1)c1nc(nc3c1oc1cc(Cl)ccc13)CCOCCCC2=O [Example 1.07] | > 10 | >1541 | 3.8 |
| C[C@H]1CN2CC[C@@H]1n1c(nc3cc(Cl)ccc31)O[C@H]1C[C@@H](C(=O)O)N(C1)c1nc(nc3c1oc1cc(Cl)ccc13)CCOCCCC2=O [Example 1.08] | 9.5 | 3928 | 4.5 |
| C[C@H]1CN2CC[C@@H]1n1c(nc3cc(Cl)ccc31)O[C@H]1C[C@@H](C(=O)O)N(C1)c1nc(nc3c1oc1cc(F)ccc13)CCCCOCC2=O [Example 1.09] | > 10 | 4305 | 3.9 |
| C[C@H]1CN2CC[C@@H]1n1c(nc3ccc(Cl)cc31)O[C@H]1C[C@@H](C(=O)O)N(C1)c1nc(nc3c1oc1ccccc13)COCCCCC2=O [Example 1.10] | > 10 | >790 | 5 |
| C[C@H]1CN2CC[C@@H]1n1c(nc3cc(Cl)ccc31)O[C@H]1C[C@@H](C(=O)O)N(C1)c1nc(nc3c1oc1ccccc13)COCCOCC2=O [Example 1.11] | ≥ 10 | >2907 | 1.9 |
| C[C@H]1CN2CC[C@@H]1n1c(nc3cc(Cl)ccc31)O[C@H]1C[C@@H](C(=O)O)N(C1)c1nc(nc3c1oc1ccccc13)C(F)(F)CCCCCC2=O [Example 1.12] | 3.6 | 1620 | 5.2 |
| C[C@H]1CN2CC[C@@H]1n1c(nc3ccc(Cl)cc31)O[C@H]1C[C@@H](C(=O)O)N(C1)c1nc(nc3c1oc1ccccc13)C(F)(F)CCCCCC2=O [Example 1.13] | 11 | 2251 | 6.1 |
| C[C@H]1CN2CC[C@@H]1n1c(nc3ccccc31)O[C@H]1C[C@@H](C(=O)O)N(C1)c1nc(nc3c1oc1cc(F)ccc13)C(F)(F)CCCCCC2=O [Example 1.14] | 18 | 11920 | 4.1 |
| C[C@H]1CN2CC[C@@H]1n1c(nc3cc(F)ccc31)O[C@H]1C[C@@H](C(=O)O)N(C1)c1nc(nc3c1oc1cc(F)ccc13)C(F)(F)CCCCCC2=O [Example 1.15] | > 10 | >1408 | 3.5 |
| C[C@H]1CN2CC[C@@H]1n1c(nc3ccccc31)O[C@H]1C[C@@H](C(=O)O)N(C1)c1nc(nc3c1oc1cc(Cl)ccc13)C(F)(F)CCCCCC2=O [Example 1.16] | 11 | 1134 | 3.3 |
| O=C(O)[C@@H]1C[C@H]2CN1c1nc(nc3c1oc1ccccc13)CCCOCC(=O)N1CCC(CC1)n1c(nc3ccccc31)O2 [Example 9.01] |  |  | 7.5 |
